According to patent US11253015B2, “Methods and devices for preventing viral transmission” (priority 2020, dated 2022):
Like-named read-outs stand apart in the source and are kept apart here.

Experiments:
HUVEC cells [1] = assay: EF-induced reorientation of endothelial cells (orientation index Oi); format: cell-based, human
Description: A series of images was taken with an image analyser immediately before EF exposure and at 4, 8 and 24 hours of EF exposure. Cell orientation was quantified as an orientation index (Oi), which is defined as Oi=cos 2(α), where a is the angle formed by the long axis of a cell with a line drawn perpendicular to the field lines. A cell with its long axis parallel to the vector of the EF will have an Oi of −1, and a cell with its long axis exactly perpendicular to the EF vector will have an Oi of +1. A randomly oriented population of cells will have an average Oi {defined as [Σn cos 2(α)]÷n} of 0. The significance of this two-dimensional orientation distribution against randomness was calculated using Rayleigh's distribution. A long:short axis ratio was calculated for assessment of elongation.
Cell alignment was quantified using an orientation index Oi=cos 2(α), where α is the angle formed between the long axis of a cell and a line drawn perpendicular to the field lines. In cells oriented perpendicular to the field vector, the Oi is +1, cells parallel to the field vector give an Oi of −1 and random orientation gives an Oi of 0.

[2] = system: HaCaT human keratinocytes; assay: scratch assay, keratinocyte migration (culture inserts, time-lapse microscopy); format: cell-based
HUVEC cells [3] = assay: EF-induced elongation of endothelial cells (long:short axis ratio); format: cell-based, human; details: for long:short axis ratio in EF-treated cells: inhibitor present during EF
Description: HUVEC cells were seeded in a trough formed by two parallel (1 cm apart) strips of glass coverslip (No. 1, length of 22 mm) fixed to the base of the dish with silicone grease. Scratch lines were made perpendicular to the long axis of the chamber with a fine sterile needle and used as reference marks for directed cell migration. Cells were incubated for 24-48 hours (37° C., 5% CO2) before a roof coverslip was applied and sealed with silicone grease. The final dimensions of the chamber, through which current was passed, were 22×10×0.2 mm. Agar-salt bridges not less than 15 cm long were used to connect silver/silver-chloride electrodes in beakers of Steinberg's solution (58 mM NaCl, 0.67 mM KCl, 0.44 mM Ca(NO3)2, 1.3 mM MgSO4, 4.6 mM Trizma base, pH 7.8-8.0), to pools of excess culture medium at either side of the chamber. Field strengths were measured directly at the beginning of, the end of and during each experiment. No fluctuations in field strength were observed. […] (50 μM), the Rho kinase inhibitor Y27632 (50 μM), both Akt and Rho kinase inhibitors (10 μM each) or latrunculin (50 nM) for 1 hour before EF stimulation. The same concentration of drug was present during EF exposure in a CO2 incubator.
A series of images was taken with an image analyser immediately before EF exposure and at 4, 8 and 24 hours of EF exposure. Cell orientation was quantified as an orientation index (Oi), which is defined as Oi=cos 2(α), where a is the angle formed by the long axis of a cell with a line drawn perpendicular to the field lines. A cell with its long axis parallel to the vector of the EF will have an Oi of −1, and a cell with its long axis exactly perpendicular to the EF vector will have an Oi of +1. […] The significance of this two-dimensional orientation distribution against randomness was calculated using Rayleigh's distribution. A long:short axis ratio was calculated for assessment of elongation.
HUVEC cells elongated dramatically in an EF. […] We quantified the elongation of the cells using a long:short axis ratio. […]

N#CC(=C(/N)Sc1ccccc1N)/C(C#N)=C(\N)Sc1ccccc1N [U0126]
orientation response (HUVEC cells [1]): decreased the orientation to a similar extent

CC(=O)N[C@@H](CS)C(=O)O [N-Acetyl Cysteine]
increased migration observed with LLEC, with N-Acetyl Cysteine ([2]; 5 mM, 1 h pretreatment before scratch assay): failed to reproduce the increased migration

1-L-6-hydroxymethyl-chiro-inositol 2-[(R)-2-O-methyl-3-O-octadecylcarbonate] [Akt inhibitor]
long:short axis ratio in EF-treated cells (HUVEC cells [3]): significantly decreased the long:short axis ratio | orientation response (HUVEC cells [1]; inhibitor 50 μM, 1 hour before and during EF): significantly decreased the orientation response

C[C@@H](N)[C@H]1CC[C@H](C(=O)Nc2ccncc2)CC1 [Y27632]
long:short axis ratio in EF-treated cells (HUVEC cells [3]): significantly decreased the long:short axis ratio | Oi (orientation index) (HUVEC cells [1]; value in the sentence on U0126 (50 μM)): 0.33±0.03

COc1cc([C@@H]2c3cc4c(cc3[C@H](O)[C@H]3COC(=O)[C@@H]23)OCO4)cc(OC)c1OC [IGF-1R inhibitor, picropodophyllin]
increased keratinocyte migration observed with LLEC, with IGF-1R inhibitor ([2]; 50 nM picropodophyllin just prior to scratch assay): attenuated the increased keratinocyte migration

C/C1=C/C(=O)O[C@@H]2C[C@@H](CC[C@H](C)/C=C\C=C\CC1)O[C@@](O)([C@@H]1CSC(=O)N1)C2 [Latrunculin A]
EF-induced elongation response (HUVEC cells [3]; latrunculin 50 nM): completely abolished | orientation response (HUVEC cells [1]; latrunculin 50 nM, 1 hour before and during EF): suppressed the orientation response significantly
